Like-named read-outs stand apart in the source and are kept apart here.
Assays:
[1] = system: Key Grass and Sedge Weeds as well as Grass Crops; assay: Post-emergent Test II herbicidal activity (Table 6); type: in vivo; details: post-emergence, 336 h; for pest or weed control at 70 g/ha: application rate 70 g ai/ha; for pest or weed control at 140 g/ha: application rate 140 g ai/ha
Outline: (§1)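 Post-emergence foliar spray, 187 L/ha, track sprayer at 43 cm above canopy. Carrier: acetone/water/IPA/DMSO/Atplus 411F/Triton X-155. Plants at 1st–2nd true leaf; subirrigated afterwards; % injury scored visually at 14 d.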

[2] = system: Key Broadleaf Weed and Crop Species; assay: Post-emergent Test II herbicidal activity (Table 5); type: in vivo; details: post-emergence, 336 h, post-emergent, 14 days after application; for pest or weed control at 70 g/ha: 70 g ai/ha; for pest or weed control at 140 g/ha: 140 g ai/ha
Outline: as §1

[3] = Triticum aestivum, TRZSS (wheat), read-out: Visual Growth Reduction (%) 14 Days After Application, TRZSS
[4] = CYPES: yellow nutsedge (Cyperus esculentus), read-out: Visual Growth Reduction (%) 14 Days After Application, CYPES
[5] = DIGSA: crabgrass (Digitaria sanguinalis), read-out: Visual Growth Reduction (%) 14 Days After Application, DIGSA
[6] = ECHCG: barnyardgrass (Echinochloa crus-galli), read-out: Visual Growth Reduction (%) 14 Days After Application, ECHCG
[7] = ORYSA: rice (Oryza sativa), read-out: Visual Growth Reduction (%) 14 Days After Application, ORYSA
[8] = SETFA: giant foxtail (Setaria faberi), read-out: Visual Growth Reduction (%) 14 Days After Application, SETFA
[9] = SORVU: grain sorghum (Sorghum vulgare), read-out: Visual Growth Reduction (%) 14 Days After Application, SORVU
[10] = ZEAMX: maize, corn (Zea mays), read-out: Visual Growth Reduction (%) 14 Days After Application, ZEAMX
[11] = ABUTH: velvetleaf (Abutilon theophrasti), read-out: Visual Growth Reduction (%) 14 Days After Application ABUTH
[12] = AMARE: redroot pigweed (Amaranthus retroflexus), read-out: Visual Growth Reduction (%) 14 Days After Application AMARE
[13] = BRSNN: oilseed-rape, canola (Brassica napus), read-out: Visual Growth Reduction (%) 14 Days After Application BRSNN
[14] = CHEAL: lambsquarters (Chenopodium album), read-out: Visual Growth Reduction (%) 14 Days After Application CHEAL
[15] = EPHHL: wild poinsettia (Euphorbia heterophylla), read-out: Visual Growth Reduction (%) 14 Days After Application EPHHL
[16] = HELAN: sunflower (Helianthus annuus), read-out: Visual Growth Reduction (%) 14 Days After Application HELAN
[17] = VIOTR: wild pansy (Viola tricolor), read-out: Visual Growth Reduction (%) 14 Days After Application VIOTR

SMILES | pest or weed control at 70 g/ha [1, 3] | pest or weed control at 140 g/ha [1, 3] | pest or weed control at 70 g/ha [1, 4] | pest or weed control at 70 g/ha [1, 5] | pest or weed control at 140 g/ha [1, 5] | pest or weed control at 70 g/ha [1, 6] | pest or weed control at 140 g/ha [1, 6] | pest or weed control at 70 g/ha [1, 7] | pest or weed control at 140 g/ha [1, 7] | pest or weed control at 70 g/ha [1, 8] | pest or weed control at 140 g/ha [1, 8] | pest or weed control at 70 g/ha [1, 9] | pest or weed control at 140 g/ha [1, 9] | pest or weed control at 70 g/ha [1, 10] | pest or weed control at 140 g/ha [1, 10] | pest or weed control at 70 g/ha [2, 11] | pest or weed control at 140 g/ha [2, 11] | pest or weed control at 70 g/ha [2, 12] | pest or weed control at 140 g/ha [2, 12] | pest or weed control at 70 g/ha [2, 13] | also measured
COC(=O)c1nc(-c2ccc(I)cc2F)cc(N)c1Cl [Compound 159] | 60 to 74% | 60 to 74% | 95 to 100% | 85 to 94% | 85 to 94% | 85 to 94% | 95 to 100% | 0 to 29% | 0 to 29% | 75 to 84% | 95 to 100% | 95 to 100% | 95 to 100% | 60 to 74% | 75 to 84% | 95 to 100% | 95 to 100% | 95 to 100% | 95 to 100% | 85 to 94% | pest or weed control at 140 g/ha [1, 4]: 95 to 100%; pest or weed control at 140 g/ha [2, 13]: 85 to 94%; pest or weed control at 70 g/ha [2, 14]: 95 to 100%; pest or weed control at 140 g/ha [2, 14]: 95 to 100%; pest or weed control at 70 g/ha [2, 15]: 95 to 100%; pest or weed control at 140 g/ha [2, 15]: 95 to 100%; pest or weed control at 70 g/ha [2, 16]: 75 to 84%; pest or weed control at 140 g/ha [2, 16]: 95 to 100%; pest or weed control at 70 g/ha [2, 17]: 0 to 29%; pest or weed control at 140 g/ha [2, 17]: 45 to 59%
Cc1c(-c2ccc(C(F)(F)F)c(F)c2)nc(C(=O)O)c(Cl)c1N [Compound 161, 4-amino-3-chloro-6-(3-fluoro-4-(trifluoromethyl)phenyl)-5-methylpicolinic acid] | 60 to 74% | 60 to 74% | 95 to 100% | 30 to 44% | 45 to 59% | 45 to 59% | 60 to 74% | 0 to 29% | 0 to 29% | 85 to 94% | 85 to 94% | 0 to 29% | 0 to 29% | 60 to 74% | 60 to 74% | 75 to 84% | 85 to 94% | 45 to 59% | 95 to 100% | 95 to 100% | pest or weed control at 140 g/ha [2, 13]: 95 to 100%; pest or weed control at 70 g/ha [2, 14]: 95 to 100%; pest or weed control at 140 g/ha [2, 14]: 95 to 100%; pest or weed control at 70 g/ha [2, 15]: 0 to 29%; pest or weed control at 140 g/ha [2, 15]: 0 to 29%; pest or weed control at 70 g/ha [2, 16]: 95 to 100%; pest or weed control at 140 g/ha [2, 16]: 95 to 100%; pest or weed control at 70 g/ha [2, 17]: 0 to 29%; pest or weed control at 140 g/ha [2, 17]: 0 to 29%
COC(=O)c1nc(-c2ccc(Br)c(F)c2)nc(N)c1OC [Compound 171, Methyl 6-amino-2-(4-bromo-3-fluorophenyl)-5-methoxypyrimidine-4-carboxylate] | 30 to 44% | 30 to 44% | 45 to 59% | 0 to 29% | 60 to 74% | 30 to 44% | 60 to 74% | 0 to 29% | 0 to 29% | 0 to 29% | 0 to 29% | 0 to 29% | 45 to 59% | 60 to 74% | 75 to 84% | 75 to 84% | 85 to 94% | 85 to 94% | 95 to 100% | 85 to 94% | pest or weed control at 140 g/ha [1, 4]: 45 to 59%; pest or weed control at 140 g/ha [2, 13]: 85 to 94%; pest or weed control at 70 g/ha [2, 14]: 85 to 94%; pest or weed control at 140 g/ha [2, 14]: 85 to 94%; pest or weed control at 70 g/ha [2, 15]: 95 to 100%; pest or weed control at 140 g/ha [2, 15]: 95 to 100%; pest or weed control at 70 g/ha [2, 16]: 85 to 94%; pest or weed control at 140 g/ha [2, 16]: 85 to 94%; pest or weed control at 70 g/ha [2, 17]: 95 to 100%; pest or weed control at 140 g/ha [2, 17]: 95 to 100%
